Measurements: US12528837B2, “Aryl substituted polymyxin derivatives” (priority 2018, dated 2026)

Columns and labels:
[1] = Renal toxicity of Example 24 vs PMB after four doses in mouse; assay type: in vivo, mouse; settings: for Urine β-2 microglobulin: CD-1 mice, urine 24 h, normalized to urinary creatinine, mean
Method: Immediately after the fourth dose mice were transferred to metabolic cages and urine collected for 24 h. for determination of urinary biomarkers. After urine collection mice were sacrificed for renal histopathology.
The urine biomarkers were normalized to urinary creatinine.

[2] = system: E. coli, K. pneumoniae, P. aeruginosa, A. baumannii strains; experiment: Synergy with rifampicin across the MIC panel; assay type: cell-based; settings: also against strains with reduced susceptibility to polymyxins
Method: (§1) MIC values (μg/mL) were determined by broth microdilution under CLSI conditions.

[3] = system: A. baumannii NCTC 13301 (OXA-23); assay type: cell-based; settings: OXA-23; alone
Method: as §1

[4] = system: A. baumannii IHMA 517303; assay type: cell-based; settings: alone
Method: as §1

[5] = system: P. aeruginosa IHMA 517175; assay type: cell-based; settings: alone
Method: as §1

[6] = system: P. aeruginosa IHMA 644636; assay type: cell-based; settings: alone
Method: as §1

[7] = system: K. pneumoniae IHMA 520329 (SHV-12, KPC-2); assay type: cell-based; settings: SHV-12, KPC-2; alone
Method: as §1

[8] = system: K. pneumoniae IHMA 580884; assay type: cell-based; settings: alone
Method: as §1

[9] = system: E. coli CDF-1 (MCR-1); assay type: cell-based; settings: MCR-1; alone
Method: as §1

[10] = system: P. aeruginosa ATCC 27853; assay type: cell-based; settings: alone
Method: as §1

[11] = system: E. coli IHMA 940398; assay type: cell-based; settings: alone
Method: as §1

[12] = system: A. baumannii IHMA 851735 (OXA-23); assay type: cell-based; settings: OXA-23; alone
Method: as §1

[13] = system: P. aeruginosa ATCC 27853; experiment: Neutropenic murine lung model; assay type: in vivo; settings: CD-1 mice lung, counts at 16 h, PMB in parentheses
Method: (§2) After rendering neutropenic (cyclophosphamide 200 mg/kg d-4, 150 mg/kg d-1). CD-1 mice (n=8) were inoculated intranasally with 10^4-10^5 cfu per lung of P. aeruginosa ATCC27853. Mice were dosed SC with appropriate doses of PMB sulphate or test compound (equivalent weight free base) at 2, 6 and 10 h post-infection. At 16 h post-infection mice were euthanised and lungs prepared for colony counts.
(§3) In each case the decrease observed with PMB in the same experiment is shown in parentheses: […]

[14] = system: HK-2 cells; experiment: In vitro renal cell toxicity assay (HK-2); assay type: cell-based
Summary of the method: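 HK-2 cells seeded 7,500/well, adhered overnight, then exposed to compound for 24 h at 37° C, 5% CO2, with 5% water and 0.5% DMSO. Background-subtracted, vehicle-normalised dose-response fitted with bottom fixed at zero; IC50 reported relative to PMB in the same run, median where repeated.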

[15] = system: K. pneumoniae ATCC 13882; experiment: MIC alone and with rifampicin, broth microdilution CLSI; assay type: cell-based; settings: alone
Method: as §1

[16] = system: E. coli ATCC 25922; experiment: as above; assay type: cell-based; settings: alone
Method: as §1

[17] = system: A. baumannii NCTC13301; experiment: Neutropenic murine lung model; assay type: in vivo
Method: as §2, with “mg/kg d-1),” for “mg/kg d-1).”, “with approx. 10^7” for “with 10^4-10^5”, “of A. baumannii NCTC13301.” for “of P. aeruginosa ATCC27853.”, “with PMB sulphate (20 mg/kg) or” for “with”, “of” for “of PMB sulphate or”
as §3

[18] = Renal toxicity in mice, separate experiment Example 17 vs PMB; assay type: in vivo, mouse; settings: sc 25 mg free base/kg, four doses at 8 hr intervals
Method: After the fourth dose animals were transferred into individual metabolic cages and urine collected for 24 hours for determination of urinary biomarkers. After collecting urine mice were euthanised and the kidneys harvested for histopathology.
In a separate experiment Example 17 was compared with PMB.

[19] = system: K. pneumoniae ATCC 43816; experiment: Neutropenic murine thigh model; assay type: in vivo; settings: CD-1 mice thigh, counts at 16 h, PMB in parentheses
Method: After rendering neutropenic (cyclophosphamide 150 mg/kg d-4, 100 mg/kg d-1), CD-1 mice (n=5) were inoculated in each thigh with approx. 10^5 cfu of K. pneumoniae ATCC43816. Mice were dosed IV with appropriate doses of PMB sulphate or test compound (equivalent weight free base) at 2, 6 and 10 h post-infection. At 16 h post-infection mice were euthanised and thighs prepared for colony counts.
as §3

[20] = Kidney drug level after subcutaneous dose in mouse; assay type: in vivo; settings: mouse, in vivo, sc, 17.2 mg/kg
Summary of the method: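 Mice were euthanised four hours after subcutaneous dosing. Both kidneys were trimmed, weighed, snap-frozen, then homogenised with zirconium oxide beads. After centrifugation (13,000 rpm, 6 °C, 10 min), supernatants were analysed by LC-MS-MS.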

Polymyxin B [reference compound]
Tubular Degeneration/necrosis (histopathology, animals affected) ([1]; CD-1 mice (n=5), sc 25 mg/kg four times at 8 h intervals): 5/5 (2 min/ | Urine β-2 microglobulin ([1]; sc 25 mg/kg four times at 8 h intervals): 43.83 | Urine β-2 microglobulin ([1]; sc […] four times at 8 h intervals): 3.43 | Basophilic Tubules (cortex) (animals affected) ([1]; mouse, in vivo, sc, 25 mg/kg): 5/5 (1 min/ | Mitotic Figures increased (animals affected) ([1]; mouse, in vivo, sc, 25 mg/kg): 3/5 | Urine Albumin ([1]; mouse, in vivo, sc, 25 mg/kg): 7.73 | Urine Cystatin C ([1]; mouse, in vivo, sc, 25 mg/kg): 44.51 | Urine Kim-1 ([1]; mouse, in vivo, sc, 25 mg/kg): 3,446.42 | Urine NGAL ([1]; mouse, in vivo, sc, 25 mg/kg): 4.37 | Synergy with rifampicin (in words) [2]: strong synergy with rifampicin | MIC A. baumannii NCTC 13301 [3]: 0.25 µg/mL | MIC A. baumannii IHMA 517303 [4]: >64 µg/mL | MIC P. aeruginosa IHMA 517175 [5]: 8 µg/mL | MIC P. aeruginosa IHMA 644636 [6]: 32 µg/mL | MIC K. pneumoniae IHMA 520329 [7]: 64 µg/mL | MIC K. pneumoniae IHMA 580884 [8]: 8 µg/mL | MIC E. coli CDF-1 [9]: 4 µg/mL | MIC P. aeruginosa ATCC 27853 [10]: 0.5 µg/mL | MIC E. coli IHMA 940398 [11]: 16 µg/mL | MIC A. baumannii IHMA 851735 [12]: 8 µg/mL | Log drop in cfu Compared to Vehicle Control ([13]; SC 5 mg/kg at 2, 6, 10 h): 0 (0) | Log drop in cfu Compared to Vehicle Control ([13]; SC 7.5 mg/kg at 2, 6, 10 h): 1.0 | Log drop in cfu Compared to Vehicle Control ([13]; SC 10 mg/kg at 2, 6, 10 h): 0.7 | Cytotoxicity (measured IC50 relative to that recorded for Polymyxin B) [14]: 1.0 | MIC K. pneumoniae ATCC 13882 [15]: 0.25 µg/mL | MIC E. coli ATCC 25922 [16]: 0.25 µg/mL | Log drop in cfu Compared to Vehicle Control ([17]; CD-1 mice lung, SC 20 mg/kg at 2, 6, 10 h, counts at 16 h, PMB (20 mg/kg) in parentheses): 0 | Efficacy in the model (in words) ([17]; neutropenic murine lung model, A. baumannii NCTC13301, 20 mg/kg SC (PMB: maximum tolerated dose)): not efficacious | Basophilic tubules (histopathology) ([18]; animals per grade): 4 minimal/1 mild | Tubular degeneration/necrosis (histopathology) ([18]; animals per grade): 4 normal/1 minimal | Albumin, elevation compared with vehicle control ([18]; urine): 29× | Cystatin C, elevation compared with vehicle control ([18]; urine): 2× | KIM-1, elevation compared with vehicle control ([18]; urine): 771× | Log drop in cfu Compared to Vehicle Control ([19]; IV 0.25 mg/kg at 2, 6, 10 h): 0.2 (0.2) | Log drop in cfu Compared to Vehicle Control ([19]; IV 1 mg/kg at 2, 6, 10 h): 5.2 | Log drop in cfu Compared to Vehicle Control ([19]; IV 2 mg/kg at 2, 6, 10 h): 4.0 | Log drop in cfu Compared to Vehicle Control ([19]; IV 4 mg/kg at 2, 6, 10 h): 5.6 | Log drop in cfu Compared to Vehicle Control ([19]; IV […] at 2, 6, 10 h): 0.2 | Drug Level in Kidney 4 h [20]: 128 µg/g kidney | Drug Level in Kidney 16 h [20]: 18 µg/g kidney
